Measurements as given in US20250368627A1, “PYRAZOLESULFONAMIDES AS ANTITUMOR AGENTS” (Peloton Therapeutics, Inc., a fully owned subsidiary of …, priority 2019, published 2025).

How the values were obtained:
[1] = test system: HCT116 human colorectal carcinoma cells; experiment: CellTiter-Glo Luminescent Cell Viability Assay; type: cell-based; settings: HCT-116, 72 h, 3 days
Summary of the method: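 CellTiter-Glo luminescence gave viability after 3 days of compound exposure in HCT116 cells grown in DMEM/10% FBS. Final concentrations ran from 5 to 0.0002 […] in 1:3 steps, each in triplicate, with IC50 derived from the curves.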

[2] = target: T1, DDB1DB/DCAF15 and RBM39 R1R2 complex (Homo sapiens, UniProt Q14498+Q66K64); experiment: DCAF15 RBM39 Complex Formation Assay (FRET); type: binding; settings: FRET ratio Em 665/Em 615, incubated overnight at 4° C.
T1 construct: Amino acids 150 to 331 of RBM39 were cloned into pGEX4T3; GST (from vector pGEX4T3); TEV cleavage site (N); made in house; host or cells: DDB1DB/His-DCAF15: baculovirus/Sf9 co-expression; RBM39 R1R2: E. coli (pGEX4T3)
Summary of the method: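 Ternary complex formation read by TR-FRET (Em 665/615, excitation 340 nm) after overnight incubation at 4° C of 20 nM baculovirus DDB1DB/His-DCAF15 and 50 nM E. coli RBM39 RRM1-RRM2 FLAG fragment with 14-point, 3-fold compound dilutions from 1 μM; EC50 from 4-parameter fit.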

T1 sequence (Q66K64 whole entry, the tested form may be a part): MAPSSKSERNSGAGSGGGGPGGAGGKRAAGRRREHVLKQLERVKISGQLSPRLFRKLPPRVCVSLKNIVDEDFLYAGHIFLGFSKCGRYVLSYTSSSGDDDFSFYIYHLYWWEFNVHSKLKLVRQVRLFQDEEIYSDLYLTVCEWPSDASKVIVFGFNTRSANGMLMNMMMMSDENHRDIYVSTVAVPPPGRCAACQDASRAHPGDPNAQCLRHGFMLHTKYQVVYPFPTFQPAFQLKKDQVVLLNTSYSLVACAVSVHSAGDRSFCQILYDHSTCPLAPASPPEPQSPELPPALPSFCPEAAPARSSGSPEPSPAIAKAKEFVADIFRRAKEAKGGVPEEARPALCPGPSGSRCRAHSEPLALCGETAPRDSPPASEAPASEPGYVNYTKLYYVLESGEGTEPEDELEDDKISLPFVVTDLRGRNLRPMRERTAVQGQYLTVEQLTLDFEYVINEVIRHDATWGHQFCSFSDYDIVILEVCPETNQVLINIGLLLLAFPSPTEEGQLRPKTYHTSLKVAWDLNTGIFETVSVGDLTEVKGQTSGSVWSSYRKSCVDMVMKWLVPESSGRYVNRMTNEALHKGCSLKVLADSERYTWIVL
T1 sequence (Q14498 150-331): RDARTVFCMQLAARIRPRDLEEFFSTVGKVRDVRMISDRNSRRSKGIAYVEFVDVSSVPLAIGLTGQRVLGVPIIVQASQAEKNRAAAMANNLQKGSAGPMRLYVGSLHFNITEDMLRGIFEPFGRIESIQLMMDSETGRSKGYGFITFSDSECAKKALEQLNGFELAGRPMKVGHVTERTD
T1 sequence (Q16531 with tags, fused parts or gaps DEL396-708 partner): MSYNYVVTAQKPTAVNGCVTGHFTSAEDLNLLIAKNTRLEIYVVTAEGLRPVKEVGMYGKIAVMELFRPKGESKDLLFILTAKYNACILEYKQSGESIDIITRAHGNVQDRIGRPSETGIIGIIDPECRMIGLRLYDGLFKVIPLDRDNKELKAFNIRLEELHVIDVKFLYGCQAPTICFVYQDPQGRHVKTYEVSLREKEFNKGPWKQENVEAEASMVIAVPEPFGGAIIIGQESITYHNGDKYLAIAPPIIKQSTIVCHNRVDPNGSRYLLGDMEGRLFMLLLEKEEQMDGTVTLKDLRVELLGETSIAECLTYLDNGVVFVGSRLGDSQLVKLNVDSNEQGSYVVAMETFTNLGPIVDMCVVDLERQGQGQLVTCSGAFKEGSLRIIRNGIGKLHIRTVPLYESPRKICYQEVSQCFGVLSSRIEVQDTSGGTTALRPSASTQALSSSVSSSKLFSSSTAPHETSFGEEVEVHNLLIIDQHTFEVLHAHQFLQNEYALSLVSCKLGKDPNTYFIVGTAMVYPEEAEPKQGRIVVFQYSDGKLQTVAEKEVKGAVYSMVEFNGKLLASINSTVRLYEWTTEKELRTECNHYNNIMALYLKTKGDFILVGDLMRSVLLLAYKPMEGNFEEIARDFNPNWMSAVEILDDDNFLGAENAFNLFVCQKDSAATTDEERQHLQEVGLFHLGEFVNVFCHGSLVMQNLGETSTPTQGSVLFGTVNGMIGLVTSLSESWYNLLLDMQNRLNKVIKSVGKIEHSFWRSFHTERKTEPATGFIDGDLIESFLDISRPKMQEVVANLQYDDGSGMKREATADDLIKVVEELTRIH

| SMILES | EC50 [1] | IC50 [2] |
| --- | --- | --- |
| Cc1ccc(NS(=O)(=O)c2cnn(CC(=O)N(C)C)c2)c2[nH]cc(C#N)c12 [Compound 140, 2-[4-[(3-cyano-4-methyl-1H-indol-7-yl)sulfamoyl]pyrazol-1-yl]-N,N-dimethyl-acetamide] | > 1000 nM | 250 to 1000 nM |
| Cc1ccc(NS(=O)(=O)c2cnn(CC(N)=O)c2)c2[nH]cc(C#N)c12 [Compound 141, 2-[4-[(3-cyano-4-methyl-1H-indol-7-yl)sulfamoyl]pyrazol-1-yl]acetamide] | > 1000 nM | < 250 nM |
| Cc1ccc(NS(=O)(=O)c2cnn(CC(=O)N3CCCC3)c2)c2[nH]cc(C#N)c12 [Compound 142, N-(3-cyano-4-methyl-1H-indol-7-yl)-1-(2-oxo-2-pyrrolidin-1-yl-ethyl)pyrazole-4-sulfonamide] | > 1000 nM | < 250 nM |
| O=S(=O)(Nc1ccc(Cl)c2c(Cl)c[nH]c12)c1cnn(C2COC2)c1 [Compound 143, N-(3,4-dichloro-1H-indol-7-yl)-1-(oxetan-3-yl)pyrazole-4-sulfonamide] | < 250 nM | < 250 nM |
| Cc1ccc(NS(=O)(=O)c2cnn(C3COC3)c2F)c2[nH]cc(C#N)c12 [Compound 144, N-(3-cyano-4-methyl-1H-indol-7-yl)-5-fluoro-1-(oxetan-3-yl)pyrazole-4-sulfonamide] | 250 to 1000 nM | < 250 nM |
| Cc1ccc(NS(=O)(=O)c2cnn(CC3(C#N)CC3)c2)c2[nH]cc(C#N)c12 [Compound 145, N-(3-cyano-4-methyl-1H-indol-7-yl)-1-((1-cyanocyclopropyl)methyl)-1H-pyrazole-4-sulfonamide] | 250 to 1000 nM | < 250 nM |
| Cc1ccc(NS(=O)(=O)c2cnn(C3CCNC3=O)c2)c2[nH]cc(C#N)c12 (stereo not drawn) [Compound 146, N-(3-cyano-4-methyl-1H-indol-7-yl)-1-(2-oxopyrrolidin-3-yl)pyrazole-4-sulfonamide] | > 1000 nM | < 250 nM |
| N#Cc1c[nH]c2c(NS(=O)(=O)c3cnn(C4CCNC4=O)c3)ccc(Cl)c12 (stereo not drawn) [Compound 147, N-(4-chloro-3-cyano-1H-indol-7-yl)-1-(2-oxopyrrolidin-3-yl)pyrazole-4-sulfonamide] | > 1000 nM | < 250 nM |
| Cc1ccc(NS(=O)(=O)c2cn(C)nc2F)c2[nH]cc(C#N)c12 [Compound 148, N-(3-cyano-4-methyl-1H-indol-7-yl)-3-fluoro-1-methyl-pyrazole-4-sulfonamide] | 250 to 1000 nM | < 250 nM |
| Cc1ccc(NS(=O)(=O)c2cnn(C)c2C(F)F)c2[nH]cc(C#N)c12 [Compound 149, N-(3-cyano-4-methyl-1H-indol-7-yl)-5-(difluoromethyl)-1-methyl-pyrazole-4-sulfonamide] | 250 to 1000 nM | < 250 nM |
| Cn1ncc(S(=O)(=O)Nc2ccc(Cl)c3c(C#N)c[nH]c23)c1C(F)F [Compound 150, N-(4-chloro-3-cyano-1H-indol-7-yl)-5-(difluoromethyl)-1-methyl-pyrazole-4-sulfonamide] | 250 to 1000 nM | < 250 nM |
| Cc1ccc(NS(=O)(=O)c2cnn([C@H]3CNC[C@H]3F)c2)c2[nH]cc(C#N)c12 [Compound 151, N-(3-cyano-4-methyl-1H-indol-7-yl)-1-[(3S,4R)-4-fluoropyrrolidin-3-yl]pyrazole-4-sulfonamide] | > 1000 nM | < 250 nM |
| N#Cc1c[nH]c2c(NS(=O)(=O)c3cnn([C@H]4CNC[C@H]4F)c3)ccc(Cl)c12 [Compound 152, N-(4-chloro-3-cyano-1H-indol-7-yl)-1-[(3S,4R)-4-fluoropyrrolidin-3-yl]pyrazole-4-sulfonamide] | > 1000 nM | < 250 nM |
| Cc1ccc(NS(=O)(=O)c2cnn([C@H]3CN(C(=O)OC(C)(C)C)C[C@H]3F)c2)c2[nH]cc(C#N)c12 [Compound 153, tert-butyl (3S,4R)-3-[4-[(3-cyano-4-methyl-1H-indol-7-yl)sulfamoyl]pyrazol-1-yl]-4-fluoro-pyrrolidine-1-carboxylate] | > 1000 nM | < 250 nM |
| CC(C)(C(N)=O)n1cc(S(=O)(=O)Nc2ccc(Cl)c3c(C#N)c[nH]c23)cn1 [Compound 154, 2-[4-[(4-chloro-3-cyano-1H-indol-7-yl)sulfamoyl]pyrazol-1-yl]-2-methyl-propanamide] | 250 to 1000 nM | < 250 nM |
| Cc1ccc(NS(=O)(=O)c2cnn(C)c2Cl)c2[nH]cc(C#N)c12 [Compound 155, 5-chloro-N-(3-cyano-4-methyl-1H-indol-7-yl)-1-methyl-pyrazole-4-sulfonamide] | < 250 nM | < 250 nM |
| Cn1ncc(S(=O)(=O)Nc2ccc(Cl)c3c(C#N)c[nH]c23)c1Cl [Compound 156, 5-chloro-N-(4-chloro-3-cyano-1H-indol-7-yl)-1-methyl-pyrazole-4-sulfonamide] | 250 to 1000 nM | < 250 nM |

| SMILES | EC50 [1] | IC50 [2] |
| --- | --- | --- |
| Cc1ccc(NS(=O)(=O)c2cnn(C3(CC#N)COC3)c2)c2[nH]cc(C#N)c12 [Compound 157, N-(3-cyano-4-methyl-1H-indol-7-yl)-1-[3-(cyanomethyl)oxetan-3-yl]pyrazole-4-sulfonamide] | 250 to 1000 nM | < 250 nM |
| N#CCC1(n2cc(S(=O)(=O)Nc3ccc(Cl)c4c(C#N)c[nH]c34)cn2)COC1 [Compound 158, N-(4-chloro-3-cyano-1H-indol-7-yl)-1-[3-(cyanomethyl)oxetan-3-yl]pyrazole-4-sulfonamide] | 250 to 1000 nM | < 250 nM |
| O=S(=O)(Nc1ccc(Cl)c2c(Cl)c[nH]c12)c1cn[nH]c1 [Compound 159, N-(3,4-dichloro-1H-indol-7-yl)-1H-pyrazole-4-sulfonamide] | < 250 nM | < 250 nM |
| N#CCC1(n2cc(S(=O)(=O)Nc3ccc(Cl)c4c(Cl)c[nH]c34)cn2)COC1 [Compound 160, 1-[3-(cyanomethyl)oxetan-3-yl]-N-(3,4-dichloro-1H-indol-7-yl)pyrazole-4-sulfonamide] | < 250 nM | < 250 nM |
| Cc1ccc(NS(=O)(=O)c2cnn(C)c2N)c2[nH]cc(C#N)c12 [Compound 161, 5-amino-N-(3-cyano-4-methyl-1H-indol-7-yl)-1-methyl-pyrazole-4-sulfonamide] | < 250 nM | < 250 nM |
| N#Cc1c[nH]c2c(NS(=O)(=O)c3cnn(CCO)c3)ccc(Cl)c12 [Compound 162, N-(4-chloro-3-cyano-1H-indol-7-yl)-1-(2-hydroxyethyl)pyrazole-4-sulfonamide] | 250 to 1000 nM | < 250 nM |
| O=S(=O)(Nc1ccc(Cl)c2c(Cl)c[nH]c12)c1cnn(CCO)c1 [Compound 163, N-(3,4-dichloro-1H-indol-7-yl)-1-(2-hydroxyethyl)pyrazole-4-sulfonamide] | < 250 nM | < 250 nM |
| N#Cc1c[nH]c2c(NS(=O)(=O)c3cnn(C(CO)(CO)CCl)c3)ccc(Cl)c12 [Compound 164, N-(4-chloro-3-cyano-1H-indol-7-yl)-1-[1-(chloromethyl)-2-hydroxy-1-(hydroxymethyl)ethyl]pyrazole-4-sulfonamide] | 250 to 1000 nM | < 250 nM |
| N#Cc1c[nH]c2c(NS(=O)(=O)c3cnn(C4(CO)COC4)c3)ccc(Cl)c12 [Compound 165, N-(4-chloro-3-cyano-1H-indol-7-yl)-1-[3-(hydroxymethyl)oxetan-3-yl]pyrazole-4-sulfonamide] | 250 to 1000 nM | < 250 nM |
| O=S(=O)(Nc1ccc(Cl)c2c(Cl)c[nH]c12)c1cnn(C(CO)(CO)CCl)c1 [Compound 166, 1-[1-(chloromethyl)-2-hydroxy-1-(hydroxymethyl)ethyl]-N-(3,4-dichloro-1H-indol-7-yl)pyrazole-4-sulfonamide] | 250 to 1000 nM | < 250 nM |
| O=S(=O)(Nc1ccc(Cl)c2c(Cl)c[nH]c12)c1cnn(C2(CO)COC2)c1 [Compound 167, N-(3,4-dichloro-1H-indol-7-yl)-1-[3-(hydroxymethyl)oxetan-3-yl]pyrazole-4-sulfonamide] | 250 to 1000 nM | < 250 nM |
| COC(=O)C(C)(C)n1cc(S(=O)(=O)Nc2ccc(Cl)c3c(Cl)c[nH]c23)cn1 [Compound 168, methyl 2-[4-[3,4-dichloro-1H-indol-7-yl)sulfamoyl]pyrazol-1-yl]-2-methyl-propanoate] | 250 to 1000 nM | < 250 nM |
| COC(=O)C(C)(C)n1cc(S(=O)(=O)Nc2ccc(Cl)c3c(C#N)c[nH]c23)cn1 [Compound 169, methyl 2-[4-[(4-chloro-3-cyano-1H-indol-7-yl)sulfamoyl]pyrazol-1-yl]-2-methyl-propanoate] | 250 to 1000 nM | < 250 nM |
| CC(C)(CO)n1cc(S(=O)(=O)Nc2ccc(Cl)c3c(Cl)c[nH]c23)cn1 [Compound 170, N-(3,4-dichloro-1H-indol-7-yl)-1-(2-hydroxy-1,1-dimethyl-ethyl)pyrazole-4-sulfonamide] | 250 to 1000 nM | < 250 nM |
| CC(C)(CO)n1cc(S(=O)(=O)Nc2ccc(Cl)c3c(C#N)c[nH]c23)cn1 [Compound 171, N-(4-chloro-3-cyano-1H-indol-7-yl)-1-(2-hydroxy-1,1-dimethyl-ethyl)pyrazole-4-sulfonamide] | < 250 nM | < 250 nM |
| CC(CO)n1cc(S(=O)(=O)Nc2ccc(Cl)c3c(Cl)c[nH]c23)cn1 (stereo not drawn) [Compound 172, N-(3,4-dichloro-1H-indol-7-yl)-1-(2-hydroxy-1-methyl-ethyl)pyrazole-4-sulfonamide] | 250 to 1000 nM | < 250 nM |
